From patent EP1560558B1, “USE OF 3-POSITION CYCLOSPORIN DERIVATIVES FOR HAIR GROWTH” (LG Household & Health Care Ltd., priority 2002, dated 2010)

test system: Female C57BL/6 mice; assay: Test for hair growth promoting effect (hair regrowth on shaved back of mice, topical application); type: in vivo; details: female C57BL/6 mice 6 to 7 weeks, hair-removed back, 100 µl (conc. 0.1% w/v) once a day for 30 days, visual approach; vehicle control 40
Experimental: Test Example: Test for hair growth promoting effect of cyclosporin derivatives of the invention
Female C57BL/6 mice of ages 6 to 7 weeks were utilized. After removing hairs on the middle of the back with an electric shaver, the mice were weighed and randomly assigned to the test groups with an even distribution of weights. The mice were given one day for adaptation. […] The results were determined by visual approach, in terms of degrees of hair regrowth. With respect to respective hair-removed areas, rates of new hair growth were examined and compared.

Molecule | Area rate of hair regrowth (%)
C/C=C/C[C@@H](C)[C@@H](O)[C@H]1C(=O)N[C@@H](CC)C(=O)N(C)[C@H](SCC)C(=O)N(C)[C@@H](CC(C)C)C(=O)N[C@@H](C(C)C)C(=O)N(C)[C@@H](CC(C)C)C(=O)N[C@@H](C)C(=O)N[C@H](C)C(=O)N(C)[C@@H](CC(C)C)C(=O)N(C)[C@@H](CC(C)C)C(=O)N(C)[C@@H](C(C)C)C(=O)N1C [Compound 1, [D-2-ethylthio-sar^3]cyclosporin A] | 90
C/C=C/C[C@@H](C)[C@@H](O)[C@H]1C(=O)N[C@@H](CC)C(=O)N(C)[C@H](SCCC)C(=O)N(C)[C@@H](CC(C)C)C(=O)N[C@@H](C(C)C)C(=O)N(C)[C@@H](CC(C)C)C(=O)N[C@@H](C)C(=O)N[C@H](C)C(=O)N(C)[C@@H](CC(C)C)C(=O)N(C)[C@@H](CC(C)C)C(=O)N(C)[C@@H](C(C)C)C(=O)N1C [Compound 2, [D-2-propylthio-sar^3] cyclosporin A] | 92
C/C=C/C[C@@H](C)[C@@H](O)[C@H]1C(=O)N[C@@H](CC)C(=O)N(C)[C@H](SC(C)C)C(=O)N(C)[C@@H](CC(C)C)C(=O)N[C@@H](C(C)C)C(=O)N(C)[C@@H](CC(C)C)C(=O)N[C@@H](C)C(=O)N[C@H](C)C(=O)N(C)[C@@H](CC(C)C)C(=O)N(C)[C@@H](CC(C)C)C(=O)N(C)[C@@H](C(C)C)C(=O)N1C [Compound 3, [D-2-isopropylthio-sarl^3] cyclosporin A] | 85
C=CCS[C@@H]1C(=O)N(C)[C@@H](CC(C)C)C(=O)N[C@@H](C(C)C)C(=O)N(C)[C@@H](CC(C)C)C(=O)N[C@@H](C)C(=O)N[C@H](C)C(=O)N(C)[C@@H](CC(C)C)C(=O)N(C)[C@@H](CC(C)C)C(=O)N(C)[C@@H](C(C)C)C(=O)N(C)[C@@H]([C@H](O)[C@H](C)C/C=C/C)C(=O)N[C@@H](CC)C(=O)N1C [Compound 4, [D-2-allylthio-sar^3] cyclosporin A] | 90
C/C=C/C[C@@H](C)[C@@H](O)[C@H]1C(=O)N[C@@H](CC)C(=O)N(C)[C@H](SCc2ccccc2)C(=O)N(C)[C@@H](CC(C)C)C(=O)N[C@@H](C(C)C)C(=O)N(C)[C@@H](CC(C)C)C(=O)N[C@@H](C)C(=O)N[C@H](C)C(=O)N(C)[C@@H](CC(C)C)C(=O)N(C)[C@@H](CC(C)C)C(=O)N(C)[C@@H](C(C)C)C(=O)N1C [Compound 5, [D-2-benzylthio-sar^3] cyclosporin A] | 90
C/C=C/C[C@@H](C)[C@@H](O)[C@H]1C(=O)N[C@@H](CC)C(=O)N(C)[C@H](Sc2ccc([N+](=O)[O-])cc2)C(=O)N(C)[C@@H](CC(C)C)C(=O)N[C@@H](C(C)C)C(=O)N(C)[C@@H](CC(C)C)C(=O)N[C@@H](C)C(=O)N[C@H](C)C(=O)N(C)[C@@H](CC(C)C)C(=O)N(C)[C@@H](CC(C)C)C(=O)N(C)[C@@H](C(C)C)C(=O)N1C [Compound 6, [D-2-(4-nitrophenyl)thio-sar^3] cyclosporin A] | 89
[D-2-(dimethylthiocarbamyl)dithio-sar^3] cyclosporin A [Compound 7] | 85

test system: mouse's back; assay: not given; details: comparative experiments on mouse's back, relative to minoxidil; cited from earlier work

Molecule | hair regrowth effect, times superior to minoxidil
cyclosporin | about 100 times
